Reference: patent US20040115706A1, “High-throughput methods for identifying quadruplex forming nucleic acids and modulators thereof” (priority 2002, published 2004)

Assays:
Type in all cases: binding
[1] = Identification of quadruplex forming nucleic acids by probing with NMM; details: for capability of forming a quadruplex structure: 0.1 to 10 μM test nucleic acid probed with 3 μM NMM, FIG. 2C; for interaction with NMM (quadruplex forming profile): 3 μM NMM, FIG. 2E
Protocol: (§1) A typical assay was carried out in 100 μl of 20 mM HEPES buffer, pH 7.0, 140 mM NaCl, and 100 mM KCl. Fifty μl of quadruplex nucleic acid or a nucleic acid not capable of forming a quadruplex were added in 96-well plate. 50 μl of signal molecule was then added for a final concentration of 3 μM. N-methylmesoporphyrin IX (NMM) and meso-tetrakis(N-methyl-4-pyridyl)porphine (TMPyP4) were tested as signal molecules. Fluorescence was measured at an excitation wavelength of 420 nm and an emission wavelength of 660 nm for each of these signal molecules using a FluoStar 2000 fluorometer (BMG Labtechnologies, Durham, N.C.). NMM and TMPyP4 were obtained from Frontier Scientific Inc, Logan, Utah. Fluorescence was plotted as a function of concentration of nucleic acid added to the system at a constant 3 μM concentration of NMM (FIG. 2A) or TMPyP4 (FIG. 2B).
In this study, several oligonucleotides were analyzed to determine which of them were capable of forming quadruplex structures. The oligonucleotides in Table 2 were synthesized by Applied Biosystems (Foster City, Calif.).
FIG. 2E depicts quadruplex forming profiles for oligonucleotides QB-1 and QB-11 to QB-25.

[2] = system: quadruplex nucleic acid QB-1; test: Signal molecule fluorescence assay with quadruplex nucleic acid; details: for fluorescent signal / interaction with quadruplex nucleic acid QB-1: 3 μM signal molecule, excitation 420 nm, emission 660 nm, FIG. 2A/2B
Protocol: as §1, with “Fifty” for “A typical assay was carried out in 100 μl of 20 mM HEPES buffer, pH 7.0, 140 mM NaCl, and 100 mM KCl. Fifty”

[3] = system: non-quadruplex nucleic acid QB-2; test: Signal molecule fluorescence assay with nucleic acid not capable of forming a quadruplex; details: 3 μM signal molecule; excitation 420 nm, emission 660 nm; FIG. 2A/2B
Protocol: as §1

ss DNA QB-1 = test: Specificity of signal molecules for single-stranded DNA; details: 3 μM NMM (FIG. 4A) or 3 μM EB (FIG. 4B)
Protocol: (§2) The specificity of signal molecules NMM and ethidium bromide was assessed with respect to single-stranded (ss) DNA and double-stranded (ds) DNA. Fluorescence was plotted as a function of the concentration of ss DNA QB-1 or ds DNAs pGL3E or pGL3E/myc, under conditions of 3 μM NMM (FIG. 4A) or 3 μM EB (FIG. 4B). Fluorescence of NMM was measured as described in Example 1. Fluorescence of EB was measured at an excitation wavelength of 485 nm and an emission wavelength 590 nm using a FluoStar 2000 fluorometer (BMG Labtechnologies, Durham, N.C.). Ethidium bromide (EB) was obtained from Calbiochem, San Diego, Calif.

[4] = system: ds DNAs pGL3E or pGL3E/myc; test: Specificity of signal molecules for double-stranded DNA; details: 3 μM NMM (FIG. 4A) or 3 μM EB (FIG. 4B)
Protocol: as §2
pGL3 was purchased from Promega, Madison, Wis. pGL3/myc included the nuclease hypersensitive element (NHE) MYC8 fragment from the proximal region of human c-MYC. pGL3/myc was constructed by cloning the MYC8 fragment from human genomic DNA (Promega, Madison, Wis.) and inserting that fragment into the multiple cloning site of the pGL3 vector via Nhe I and Bgl II digestion and ligation. The MYC8 fragment (840 bp) was cloned from human genomic DNA using two primer oligonucleotides. The sense strand primer oligonucleotide for the c-MYC regulatory region had the nucleotide sequence 5′-[…]-3′ (SEQ ID NO: 36; Nhe I site is underlined), which corresponded to site 1993 in the sense strand GenBank sequence. […]

ds DNA pGL3 = test: EB competition with NMM or TMPyP4 for ds DNA; details: 6.5 μg/μl pGL3; presence or absence of EB; FIG. 4C
Protocol: Next, the effect of EB competition with NMM or TMPyP4 for ds DNA was assessed. The assay was carried out as described in the previous paragraph, with 6.5 μg/μl pGL3, and the results were graphically compiled in FIG. 4C.
pGL3 was purchased from Promega, Madison, Wis. pGL3/myc included the nuclease hypersensitive element (NHE) MYC8 fragment from the proximal region of human c-MYC. pGL3/myc was constructed by cloning the MYC8 fragment from human genomic DNA (Promega, Madison, Wis.) and inserting that fragment into the multiple cloning site of the pGL3 vector via Nhe I and Bgl II digestion and ligation. The MYC8 fragment (840 bp) was cloned from human genomic DNA using two primer oligonucleotides. The sense strand primer oligonucleotide for the c-MYC regulatory region had the nucleotide sequence 5′-[…]-3′ (SEQ ID NO: 36; Nhe I site is underlined), which corresponded to site 1993 in the sense strand GenBank sequence. The antisense primer had the nucleotide sequence 5′-[…]-3′ (SEQ ID NO: 37; Bgl II site is underlined), which corresponded to site 2833 in the sense strand GenBank sequence. The Genbank sequence was the Homo sapiens MYC gene, c-myc proto-oncogene and ORF1, Length=10996 (http address: www.ncbi.nlm.nih.gov/entrez/query.fcgi?cmd=Retrieve&db=nucleotide&list_uids=188965&dopt=GenBank). The construct was confirmed by sequencing.

[5] = system: quadruplex nucleic acid QB-1; test: Competition of test molecules with NMM for quadruplex nucleic acid QB-1; details: QB-1 5 μM, NMM 3 μM; FIG. 3
Protocol: Test molecules were mixed with the quadruplex nucleic acid QB-1 in a 96-well plate and fluorescence backgrounds were monitored under the conditions specified in Example 1. NMM was then added to wells in the 96-well plate to a final concentration of 3 μM. Fluorescence of NMM was measured at an excitation wavelength of 420 nm and an emission wavelength of 660 nm using a FluoStar 2000 fluorometer (BMG Labtechnologies, Durham, N.C.). Maximum fluorescent signals for NMM were assessed in the absence of the test molecules. Fluorescence was plotted as a function of the concentration of three test molecules with constant concentrations of QB-1 (5 μM) and NMM (3 μM)(FIG. 3). The test compounds were telomestatin, QQ28, and serinodisaphyrin (see, e.g., Shin-ya et al., J. Am. Chem. Soc. 123:1262 (2001); Duan et al., Mol. Cancer Therapeutics 1:103 (2001)).

**Q.** For “QB-10: 5′-GGTTGGTGTGGTTGG-3′, SEQ ID NO 20, intramolecular edge, or chair structure (DNA, backbone not given here)”, which “capability of forming a quadruplex structure” value (shortened to “capability”) [1] is on record?
**A.** capable of forming a quadruplex structure

**Q.** For “QB-23: 5′-CGCTTGATGAGTCAGCCGGAA-3′, SEQ ID NO 33, AP-1 (DNA, backbone and methylation of C not given here)”, which “interaction with NMM (quadruplex forming profile)” value (“interaction with NMM” below) [1] is on record?
**A.** did not appreciably interact with NMM

**Q.** With `CCC1=C(C)c2cc3[nH]c(cc4nc(cc5c(CCC(=O)O)c(C)c(cc1n2)n5C)C(CCC(=O)O)=C4C)c(C)c3CC` [NMM, N-methylmesoporphyrin IX] as the compound, how does the “fluorescent signal / interaction with quadruplex nucleic acid QB-1” value [2] read?
**A.** interacted with quadruplex nucleic acid QB-1

**Q.** And the “stabilization of quadruplex structure” value ([2]; without the addition of potassium ions, FIG. 2A)?
**A.** could stabilize quadruplex structure without the addition of potassium ions

**Q.** What about the “fluorescent signal / interaction with non-quadruplex nucleic acid QB-2” value [3] of the same compound?
**A.** did not interact appreciably

**Q.** What about the “interaction with single-stranded DNA” value (ss DNA QB-1) of the same compound?
**A.** interacted with ssDNA

**Q.** And the “interaction with double-stranded DNA” value [4]?
**A.** did not interact appreciably with ds DNA

**Q.** What about the “interaction with ds DNA” value (ds DNA pGL3) of the same compound?
**A.** did not interact with ds DNA

**Q.** For “QB-25: 5′-CCTTCCCCACCCTCCCCACCCTCCCCA-3′, SEQ ID NO 35, c-MYC (DNA, backbone and methylation of C not given here)”, which “interaction with NMM” value [1] is on record?
**A.** did not appreciably interact with NMM

**Q.** What does the source list for `C[n+]1ccc(-c2c3nc(c(-c4cc[n+](C)cc4)c4ccc([nH]4)c(-c4cc[n+](C)cc4)c4nc(c(-c5cc[n+](C)cc5)c5ccc2[nH]5)C=C4)C=C3)cc1` [TMPyP4, meso-tetrakis(N-methyl-4-pyridyl)porphine]?
**A.** change of emitted signal with increasing quadruplex nucleic acid concentrations ([2]; 3 μM TMPyP4, FIG. 2B, likely due to quenching): decreased with increasing quadruplex nucleic acid concentrations; fluorescent signal / interaction with quadruplex nucleic acid QB-1 [2]: varied significantly; fluorescent signal / interaction with non-quadruplex nucleic acid QB-2 [3]: varied significantly; interaction with ds DNA (ds DNA pGL3): did interact with ds DNA

**Q.** Which “affinity of interaction with the quadruplex DNA (competition with NMM)” value [5] does the source give for serinodisaphyrin here?
**A.** intermediate affinity

**Q.** And the “identification as quadruplex interacting molecule” value [5]?
**A.** identified as quadruplex interacting molecules

**Q.** With “QB-20: 5′-GTGGTGGGTGGGTGGGT-3′, SEQ ID NO 30, T30177 (DNA, backbone not given here)” as the compound, how does the “interaction with NMM” value [1] read?
**A.** interacted most significantly

**Q.** Which “capability” value [1] does the source give for “QB-1: 5′-AGGGTGGGGAGGGTGGGGAA-3′, SEQ ID NO 17, c-MYC (DNA, backbone not given here)” here?
**A.** capable of forming a quadruplex structure

**Q.** Which “capability” value [1] does the source give for “QB-9: 5′-GGGGTTTTGGGG-3′, SEQ ID NO 19, dimers for quadruplex of basket or crossover structure (DNA, backbone not given here)” here?
**A.** capable of forming a quadruplex structure
